From patent US10329309B2, “3-(3H-imidazo[4,5-B]pyridin-2-yl)-1H-pyrazolo[4,3-B]pyridines and therapeutic uses thereof” (Samumed, LLC, priority 2015, dated 2019)
pEC50: −log10 of the molar value.

What was measured:
[1] = tested on: primary human mesenchymal stem cells (hMSCs); test: Induction of chondrogenesis in primary human mesenchymal stem cells (nodule imaging, Rhodamine B/Nile Red); format: cell-based; conditions: hMSC chondrogenesis; for Emax: TGF-β3 as positive control, read-out: Max. Activity as % TGF-β3 activity; for EC50: concentration required to induce 50% levels of chondrogenesis vs TGF-β3, read-out: Conc (nM) of 50% TGF-β3 activity
Protocol: Representative compounds were screened using primary human mesenchymal stem cells (hMSCs) to determine their ability to induce chondrogenesis (process by which cartilage is developed).
Primary human mesenchymal stem cells (hMSCs) were purchased from Lonza (Walkersville, Md.) and expanded in Mesenchymal Stem Cell Growth Media (Lonza). Cells between passage 3 and 6 were used for the experiments.
Each compound was dissolved in DMSO as a 10 mM stock and used to prepare compound source plates. For the 96 well assay, serial dilution (1:3, 6-point dose-response curves from 2700 nM to 10 nM) and compound transfer was performed using the ECHO 550 (Labcyte, Sunnyvale, Calif.) into 96-well clear bottom assay plates (Greiner Bio-One) with appropriate DMSO backfill for a final DMSO concentration of 0.03%. hMSCs were plated at 20,000 cells/well in 250 μL/well Incomplete Chondrogenic Induction Medium (Lonza; DMEM, dexamethasone, ascorbate, insulin-transferrin-selenium [ITS supplement], gentamycin-amphotericin [GA-1000], sodium pyruvate, proline and L-glutamine). TGF-−3 (10 ng/mL) was used as a positive control for differentiation while negative control wells were treated with 75 nL DMSO for normalization and calculating EC50 values. For the 384 well assay, serial dilution (1:3, 8-point dose-response curves from 5000 nM to 2.2 nM) and compound transfer was performed using the ECHO 550 (Labcyte, Sunnyvale, Calif.) into 384-well clear bottom assay plates (Greiner Bio-One) with appropriate DMSO backfill for a final DMSO concentration of 0.03%. hMSCs were plated at 8,000 cells/well in 80 μL/well Incomplete Chondrogenic Induction Medium (Lonza; DMEM, dexamethasone, ascorbate, insulin-transferrin-selenium [ITS supplement], gentamycin-amphotericin [GA-1000], sodium pyruvate, proline and L-glutamine). TGF-β3 (10 ng/mL) was used as a positive control for differentiation while negative control wells were treated with 25 nL DMSO for normalization and calculating EC50 values. Cells were incubated at 37° C. and 5% CO2 for 6 days. To image chondrogenic nodules, the cells were fixed using 4% formaldehyde (Electron Microscopy Sciences), and stained with 2 μg/mL Rhodamine B (Sigma-Aldrich) and 20 μM Nile Red (Sigma-Aldrich) [Johnson K., et. al, A Stem Cell-Based Approach to Cartilage Repair, Science, (2012), 336(6082), 717-721]. The nodules imaged (25 images per well for 96 well plates and 9 images per well for 384 well plates at 10× magnification) by excitation at 531 nm and emission at 625 nm and quantified using the CellInsight CX5 (Thermo Scientific). Area of nodules in each well was normalized to the average of 3 DMSO treated wells on the same plate using Excel (Microsoft Inc.). The normalized averages (fold change over DMSO) of 2 or 3 replicate wells for each compound concentration were calculated. Due to solubility limitations of some of the compounds, curve fitting was incomplete leading to inaccurate EC50 determinations.
Using TGF-β3 as a positive control, the concentration of representative compounds required to induce 50% levels of chondrogenesis is reported. In addition, the maximum activity of each compound and the respective dose that each compound reached maximum chondrogenesis activity is reported.

[2] = tested on: IL-6 (THP-1 cells); test: Inhibition of IL-6 in LPS-stimulated THP-1 monocytes (HTRF); format: cell-based; conditions: Homo sapiens; for pEC50: LPS 500 ng/mL, IL-6 by HTRF; for inhibition at 10 µM: LPS stimulated, IL-6, at 10 μM, read-out: percent inhibition at 10 μM (given for EC50 of >10 μM)
Outline: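 IL-6 release was read as the HTRF 665/620 nm ratio after 22 h of 500 ng/mL LPS at 37 °C. Before stimulation, THP-1 cells kept 24 h in 1% FBS were exposed 2 h to a 10-point 1:3 compound series starting at 10 μM, in 0.1% DMSO. Four-parameter EC50s came from DMSO-normalized duplicates, with % inhibition at 10 μM reported beyond 10 μM.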

Row | EC50 [1] | pEC50 [2] | SMILES | Emax [1] | inhibition at 10 µM [2]
1 | 21 nM | 6.53 | CC(C)CC(=O)Nc1cncc(-c2ccc3[nH]nc(-c4nc5c(-c6cccc(F)c6)ccnc5[nH]4)c3n2)c1 [Compound 2, N-(5-(3-(7-(3-fluorophenyl)-3H-imidazo[4,5-b]pyridin-2-yl)-1H-pyrazolo [4,3-b]pyridin-5-yl)pyridin-3-yl)-3-methylbutanamide] | 56% | 
2 | 10 nM | 5.13 | CN(C)c1cncc(-c2ccc3[nH]nc(-c4nc5c(-c6cccc(F)c6)ccnc5[nH]4)c3n2)c1 [Compound 7, 5-(3-(7-(3-fluorophenyl)-3H-imidazo[4,5-b]pyridin-2-yl)-1H-pyrazolo[4,3-b]pyridin-5-yl)-N,N-dimethylpyridin-3-amine] | 84% | 
3 |  | 5.23 | CN(C)Cc1cncc(-c2ccc3[nH]nc(-c4nc5c(-c6cccc(F)c6)ccnc5[nH]4)c3n2)c1 [Compound 13, 1-(5-(3-(7-(3-fluorophenyl)-3H-imidazo[4,5-b]pyridin-2-yl)-1H-pyrazolo [4,3-b]pyridin-5-yl)pyridin-3-yl)-N,N-dimethylmethanamine] | 29% | 
4 |  | < 5.00 | Fc1ccc(-c2ccnc3[nH]c(-c4n[nH]c5ccc(-c6cncc(CN7CCCC7)c6)nc45)nc23)cc1 [Compound 42, 3-(7-(4-fluorophenyl)-3H-imidazo[4,5-b]pyridin-2-yl)-5-(5-(pyrrolidin-1-ylmethyl)pyridin-3-yl)-1H-pyrazolo[4,3-b]pyridine] | 17% | 46.1%
5 | 30 nM | < 5.00 | O=C(Nc1cncc(-c2ccc3[nH]nc(-c4nc5c(-c6ccc(F)cc6)ccnc5[nH]4)c3n2)c1)C1CCC1 [Compound 49, N-(5-(3-(7-(4-fluorophenyl)-3H-imidazo[4,5-b]pyridin-2-yl)-1H-pyrazolo [4,3-b]pyridin-5-yl)pyridin-3-yl)cyclobutanecarboxamide] | 69% | 44%
6 |  | < 5.00 | CC(C)(C)CC(=O)Nc1cncc(-c2ccc3[nH]nc(-c4nc5c(-c6ccccc6F)ccnc5[nH]4)c3n2)c1 [Compound 72, N-(5-(3-(7-(2-fluorophenyl)-3H-imidazo[4,5-b]pyridin-2-yl)-1H-pyrazolo [4,3-b]pyridin-5-yl)pyridin-3-yl)-3,3-dimethylbutanamide] |  | 27.8%
7 |  | < 5.00 | Fc1ccccc1-c1ccnc2[nH]c(-c3n[nH]c4ccc(-c5ccccn5)nc34)nc12 [Compound 84, 3-(7-(2-Fluorophenyl)-3H-imidazo[4,5-b]pyridin-2-yl)-5-(pyridin-2-yl)-1H-pyrazolo[4,3-b]pyridine] |  | 23%
8 | 300 nM | < 5.00 | c1cncc(-c2ccc3[nH]nc(-c4nc5c(-c6cccnc6)ccnc5[nH]4)c3n2)c1 [Compound 88, 5-(pyridin-3-yl)-3-(7-(pyridin-3-yl)-3H-imidazo[4,5-b]pyridin-2-yl)-1H-pyrazolo [4,3-b]pyridine] | 95% | 36.6%
9 | 10 nM | 6.37 | CC(C)Nc1cncc(-c2ccc3[nH]nc(-c4nc5c(-c6cccnc6)ccnc5[nH]4)c3n2)c1 [Compound 96, N-isopropyl-5-(3-(7-(pyridin-3-yl)-3H-imidazo[4,5-b]pyridin-2-yl)-1H-pyrazolo[4,3-b]pyridin-5-yl)pyridin-3-amine] | 113% | 
10 |  | < 5.00 | O=C(Nc1cncc(-c2ccc3[nH]nc(-c4nc5c(N6CCCCC6)ccnc5[nH]4)c3n2)c1)C1CC1 [Compound 188, N-(5-(3-(7-(Piperidin-1-yl)-3H-imidazo[4,5-b]pyridin-2-yl)-1H-pyrazolo [4,3-b]pyridin-5-yl)pyridin-3-yl)cyclopropanecarboxamide] |  | 28%
11 |  | 5.01 | Cc1ccncc1-c1ccc2[nH]nc(-c3nc4c(-c5ccsc5)ccnc4[nH]3)c2n1 [Compound 285, 5-(4-methylpyridin-3-yl)-3-(7-(thiophen-3-yl)-3H-imidazo[4,5-b]pyridin-2-yl)-1H-pyrazolo[4,3-b]pyridine] | 33% | 
12 |  | < 5.00 | O=C(Nc1cncc(-c2ccc3[nH]nc(-c4nc5c(-c6ccsc6)ccnc5[nH]4)c3n2)c1)c1ccccc1 [Compound 291, N-(5-(3-(7-(Thiophen-3-yl)-3H-imidazo[4,5-b]pyridin-2-yl)-1H-pyrazolo [4,3-b]pyridin-5-yl)pyridin-3-yl)benzamide] |  | 21%
13 |  | 5.00 | CCCC(=O)Nc1cncc(-c2ccc3[nH]nc(-c4nc5c(-c6ccsc6)ccnc5[nH]4)c3n2)c1 [Compound 297, N-(5-(3-(7-(thiophen-3-yl)-3H-imidazo[4,5-b]pyridin-2-yl)-1H-pyrazolo[4,3-b]pyridin-5-yl)pyridin-3-yl)butyramide] | 40% | 
14 | 30 nM | 5.88 | FC1(F)CCN(Cc2cncc(-c3ccc4[nH]nc(-c5nc6c(-c7ccsc7)ccnc6[nH]5)c4n3)c2)C1 [Compound 306, 5-(5-((3,3-difluoropyrrolidin-1-yl)methyl)pyridin-3-yl)-3-(7-(thiophen-3-yl)-3H-imidazo[4,5-b]pyridin-2-yl)-1H-pyrazolo[4,3-b]pyridine] | 77% | 
15 |  | < 5.00 | O=C(Nc1cncc(-c2ccc3[nH]nc(-c4nc5c(-c6cccs6)ccnc5[nH]4)c3n2)c1)C1CC1 [Compound 356, N-(5-(3-(7-(Thiophen-2-yl)-3H-imidazo[4,5-b]pyridin-2-yl)-1H-pyrazolo [4,3-b]pyridin-5-yl)pyridin-3-yl)cyclopropanecarboxamide] |  | 38%
16 |  | < 5.00 | CS(=O)(=O)NCc1cc(F)cc(-c2ccnc3[nH]c(-c4n[nH]c5ccc(-c6cncc(CNCc7ccccc7)c6)nc45)nc23)c1 [Compound 500, N-(3-(2-(5-(5-((Benzylamino)methyl)pyridin-3-yl)-1H-pyrazolo[4,3-b]pyridin-3-yl)-3H-imidazo[4,5-b]pyridin-7-yl)-5-fluorobenzyl)methanesulfonamide] |  | 45.6%
17 |  | < 5.00 | Fc1cccc(-c2ccnc3[nH]c(-c4n[nH]c5ccc(-c6cncc(OCCN7CCCC7)c6)nc45)nc23)c1 [Compound 514, 3-(7-(3-Fluorophenyl)-3H-imidazo[4,5-b]pyridin-2-yl)-5-(5-(2-(pyrrolidin-1-yl)ethoxy)pyridin-3-yl)-1H-pyrazolo[4,3-b]pyridine] |  | 49.5%
18 |  | < 5.00 | COc1cccc(-c2ccnc3[nH]c(-c4n[nH]c5ccc(-c6cncc(NC(=O)CC(C)(C)C)c6)nc45)nc23)c1 [Compound 1006, N-(5-(3-(7-(3-methoxyphenyl)-3H-imidazo[4,5-b]pyridin-2-yl)-1H-pyrazolo[4,3-b]pyridin-5-yl)pyridin-3-yl)-3,3-dimethylbutanamide] |  | 32.7%
19 |  | < 5.00 | COc1cccc(-c2ccnc3[nH]c(-c4n[nH]c5ccc(-c6cncc(NC(=O)C7CCCCC7)c6)nc45)nc23)c1 [Compound 1012, N-(5-(3-(7-(3-Methoxyphenyl)-3H-imidazo[4,5-b]pyridin-2-yl)-1H-pyrazolo [4,3-b]pyridin-5-yl)pyridin-3-yl)cyclohexanecarboxamide] |  | 43.3%
20 |  | 5.75 | NC1CN(c2cncc(-c3ccc4[nH]nc(-c5nc6c(-c7ccc(Cl)s7)ccnc6[nH]5)c4n3)n2)C1 [Compound 1068, 1-(6-(3-(7-(5-Chlorothiophen-2-yl)-3H-imidazo[4,5-b]pyridin-2-yl)-1H-pyrazolo[4,3-b]pyridin-5-yl)pyrazin-2-yl)azetidin-3-amine] |  | 
